The nature of series [1]: Urinary excretion / metabolite profile in 24 h mouse urine. The following applies: mice, NU7026 5 mg kg^−1 i.v., LC/MS ion current. Format: in vivo, Female BALB/c mice. The protocol: (§1) NU7026 was formulated in 10% DMSO and 5% Tween 20 in saline for i.p. and perorally (p.o.) administration at 20 and 50 mg kg^−1, respectively. For i.v. dosing at 5 mg kg^−1, NU7026 was formulated in 10% ethanol, 25% PEG 200 and 5% Tween 20 in saline. Control animals received the vehicle alone. Groups of three mice were injected per time point. Blood was collected by cardiac puncture following transient anaesthesia with halothane at 0.083, 0.25, 0.5, 1, 2, 4, 6, and 24 h post administration. Following centrifugation at 1500 g for 2 min to obtain plasma, samples were stored at −20°C until analysis. For urinary excretion studies, NU7026 was administered at 5 mg kg^−1 i.v. Urine was collected over 24 h in metabolic cages, and stored at −20°C until required.
For metabolism studies, LC/MS and LC/MS/MS were carried out on an LCQ ion trap instrument (ThermoFinnigan, UK). Separation was achieved using the same column as above. A linear gradient of 90% formic acid (0.1%) : 10% MeOH to 10% formic acid (0.1%) : 90% MeOH was run at 1 ml min^−1 from 0.5 to 6.5 min followed by 3.5 min isocratic. The capillary temperature was set to 200°C and the scan range from m/z 50 to m/z 850. For confirmation of metabolite structures, metabolites were spiked in control matrix and MS/MS fragmentation patterns and retention times were compared to those of biological samples.

The subject of series [2] is CH1 human ovarian carcinoma cells. Kind of series: Clonogenic survival assay / radiosensitisation. It is filed as cell-based. The following applies: for cell count, % of the radiation control group: P<0.01. The protocol: These experiments were not designed as classical radiosensitisation experiments, that is, radiation dose finding study, but rather as experiments to investigate the minimum drug exposure required to observe radiosensitisation. CH1 human ovarian carcinoma cells were chosen as as a model because of their relative radiosensitivity (Kelland, personnal communication). They were grown as monolayers in Dubelcco's modified Eagle's medium (Invitrogen, Paisley, Scotland) augmented with 10% heat-inactivated fetal calf serum, 2 mM L-glutamine, minimal essential medium nonessential amino acid (Invitrogen) and 0.5 μg ml^−1 hydrocortisone in a 6.5% CO2/93.5% air atmosphere.
Cells were seeded at 1000 per 10 ml into […] flasks and left to attach overnight. Each group consisted of triplicate flasks. Following the addition of NU7026 (10 μM) or dimethyl sulphoxide (DMSO) solvent control for 24 h (final concentration of DMSO was 0.5%), cells were irradiated with a cobalt source (^60Co) for 3 min and 9 s at a distance of 40 cm to give a total dose of 2 Gy, or 2 min and 49 s at a distance of 30 cm to give a final dose of 3 Gy, or 6 min and 18 s at a distance of 40 cm to give a total dose of 4 Gy. Control cells were not treated with either drug or ionising radiation. Group 2 cells were treated with NU7026 only and Group 3 cells were irradiated only. Groups 4–7 were treated with NU7026 and irradiated with 2, 3 or 4 Gy. The drug was washed off by aspiration of the medium and rinsing with 10 mM phosphate-buffered saline (PBS) 2 h (Group 4), 4 h (Group 5), 6 h (Group 6) and 24 h (Group 7) after exposure. Following the addition of drug-free medium, cells were left to grow until colonies were visible. Colonies were then counted after 9 days and expressed as a percentage of controls. The doubling time of the cells was approximately 16 h.

Series [3] can be described thus: Plasma pharmacokinetics in mice (LC/MS/MS). It is filed as in vivo, Female BALB/c mice. The protocol: as §1
Samples were analysed by liquid chromatography tandem mass spectrometry (LC/MS/MS). Chromatography was performed using a 50 × 4.6 mm ID 5 μm zwitterionic ABZ+ column (Supelco, Poole, Dorset, UK) and a gradient of 20% methanol (MeOH) in formic acid (0.1%) to 100% MeOH over 3 min, followed by an isocratic period at a flow rate of 0.6 ml min^−1. The total run time was 7 min. Detection by multiple reaction monitoring was performed on a TSQ700 triple quadrupole mass spectrometer equipped with an electrospray source and operated in positive ion mode (Thermoquest Ltd, Hemel Hempstead, Herts, UK). The heated capillary was maintained at 280°C and at a voltage of 4.5 kV. The following transitions were monitored: m/z (mass to charge ratio) 282.4 → m/z 171 for NU7026; m/z 262.3 → m/z 121 for NU7031; m/z 300 → m/z 256 for NU7119; m/z 300 → m/z 238 for NU7200. Calibration standards (20, 200, 500, 1000, 2000, 5000, 10 000, 20 000 and 50 000 nM) were prepared in blank mouse plasma. Following the addition of internal standard (30 μl of 2 μM solution of NU7031), plasma proteins were precipitated with 300 μl MeOH. Samples were then centrifuged and 20 μl of supernatant was injected onto the column. Peak area was plotted against concentration and unknown concentrations derived from the linear plot (analysed with Prism 2.01, Graphpad Software, San Diego, CA, USA).
Pharmacokinetic parameters were evaluated by noncompartmental analysis (model 200 for p.o. and i.p. administration and 201 for i.v. administration) using WinNonlin® Professional Version 3.2 (Pharsight Corporation, Mountain View, CA, USA). For simulation studies, parameters were derived from compartmental analysis.

Series [4] has as its target ataxia telangiectasia mutated kinase (ATM). Also noted: method as in Veuger et al, 2003, 2004; Griffin et al 2005. The following applies: ref Veuger et al, 2003, 2004; Griffin et al 2005; cited from earlier work.
In series [5] the test system is ataxia telangiectasia and rad 3-related kinases (ATR). Also noted: method as in Veuger et al, 2003, 2004; Griffin et al 2005. The following applies: ref Veuger et al, 2003, 2004; Griffin et al 2005; cited from earlier work.
The target in series [6] is phosphoinositide 3-kinase. Also on record: method as in Veuger et al, 2003, 2004; Griffin et al 2005. The following applies: ref Veuger et al, 2003, 2004; Griffin et al 2005; cited from earlier work.
Series [7] can be described thus: Solubility (for constant infusion with osmotic minipumps). It is filed as physicochemical. The following applies: for dosing by constant infusion with osmotic minipumps.
In a further series the target is DNA-PK (Homo sapiens, UniProt P78527). Kind of series: DNA-PK inhibition. Format: biochemical. The following applies: stated in results, no method or reference given; read-out: IC50 inhibiting DNA-PK.
[8] abbreviates: Table 2: parent and metabolites in plasma after NU7026 at 5 mg kg^−1 i.v. to mice.
The mark [9] stands for this setting: Table 3: each compound at 20 mg kg^−1 i.p. to mice, plasma.
Where [10] appears, read: female, BALB/c, mouse, plasma, ip, 20 mg/kg, Table 3: each compound at 20 mg kg^−1 i.p. to mice, plasma.

As usually defined, the half-life is the time needed for the level to fall by half in the phase considered. In general, bioavailability refers to dose-corrected exposure relative to a reference, in per cent. A high value points to much systemic uptake. A word on the Cmax: it is the maximum level reached in the sampled fluid or tissue. Broadly, the IC50 is the concentration at which inhibition is half-maximal.

Where two headings read alike, the source gives them in different places.

`O=c1cc(N2CCOC(O)C2)oc2c1ccc1ccccc12` (centres unmarked) [M1]: in series [1], the “level in 24 h urine samples” value was “significant amounts”.

Regarding `O=c1cc(N2CCOCC2)oc2c1ccc1ccccc12` [NU7026, 2-(morpholin-4-yl)-benzo[H]chromen-4-one], the entries for the “cell survival, % of the solvent-treated group” value in series [2] (10 μM NU7026 combined with 2 Gy radiation), in series [2] (10 μM NU7026 combined with 3 Gy radiation) and in series [2] (10 μM NU7026 combined with 4 Gy radiation) were 15%, 9% and 1%, respectively. Besides, the “radiosensitisation vs radiation alone” value in series [2] (2 h treatment with 10 μM NU7026 + 3 Gy, t test P>0.1) is on record as “no significant difference”. In addition, the “cell count, % of the radiation control group” value in series [2] (4 h exposure to 10 μM NU7026 + 3 Gy) is 61%; in series [2] (6 h exposure to 10 μM NU7026 + 3 Gy) it was 47%; in series [2] (24 h exposure to 10 μM NU7026 + 3 Gy), 13%. Besides, the activity at 10 µM in series [2] (Homo sapiens, Ovarian carcinoma cell, NU7026 alone, 10 μM for 24 h, no radiation, read-out: surviving fraction, % of control cells) amounted to 91 ± 13%. For the same compound, the AUC last in series [3] (setting [8]) is 3616 nmol·L/h; in series [3] (mice, 5 mg kg^−1 i.v., plasma), 3616 nM l h^−1; in series [3] (mice, 20 mg kg^−1 i.p., plasma), 2940 nM l h^−1; in series [3] (mice, 50 mg kg^−1 p.o., plasma), 5191 nM l h^−1. Moreover, the Cl obs. in series [3] (setting [9]) turned out to be 0.44 L/h; in series [3] (mice, 20 mg kg^−1 i.p., plasma), 0.44 L/h; in series [3] (mice, 50 mg kg^−1 p.o., plasma), 0.63 L/h. The Vd turned out to be 0.55 L in series [3] (setting [9]); 0.16 L in series [3] (female, BALB/c, mouse, plasma, iv, mice, 5 mg kg^−1 i.v., based on the elimination phase, read-out: Vd); 0.55 L in series [3] (mice, 20 mg kg^−1 i.p., based on the elimination phase); 1.34 L in series [3] (mice, 50 mg kg^−1 p.o., based on the elimination phase). This compound came in with a t1/2 in series [3] (setting [9]) of 52.2 min. In addition, the half-life in series [3] (female, BALB/c, mouse, ip, mice, 20 mg kg^−1 i.p., plasma) is 52.2 min; in series [3] (female, BALB/c, mouse, iv, mice, 5 mg kg^−1 i.v., plasma), 73.2 min; in series [3] (female, BALB/c, mouse, po, mice, 50 mg kg^−1 p.o., plasma), 88.8 min. Also, the Tmax stood at 4.98 min in series [3] (female, BALB/c, mouse, ip, mice, 20 mg kg^−1 i.p., plasma, read-out: Tmax); 0 min in series [3] (female, BALB/c, mouse, iv, mice, 5 mg kg^−1 i.v., plasma, read-out: Tmax); 60 min in series [3] (female, BALB/c, mouse, mice, oral 50 mg kg^−1, plasma, read-out: time of maximum concentration after administration). For the same compound, the bioavailability in series [3] (female, BALB/c, mouse, plasma, intraperitoneal, mice, i.p. 20 mg kg^−1, assuming linear i.v. pharmacokinetics) came to 20%. For the same compound, the Cmax in series [3] (setting [10]) is 5.12 µM; in series [3] (female, BALB/c, mouse, plasma, ip, 20 mg/kg, mice, 20 mg kg^−1 i.p., noncompartmental), 7.36 µM; in series [3] (female, BALB/c, mouse, plasma, iv, 5 mg/kg, mice, 5 mg kg^−1 i.v., noncompartmental) it was 5.12 µM; in series [3] (female, BALB/c, mouse, plasma, po, 50 mg/kg, mice, 50 mg kg^−1 p.o., noncompartmental), 2.23 µM; in series [3] (female, BALB/c, mouse, plasma, po, 50 mg/kg, mice, p.o. 50 mg kg^−1 (discussion)) it was < 2.5 µM. The clearance in series [3] (female, BALB/c, mouse, plasma, iv, 5 mg/kg, mice, 5 mg kg^−1 i.v., plasma, read-out: Cl obs. (converted)) was 1.5 mL/min; in series [3] (female, BALB/c, mouse, plasma, iv, 5 mg/kg, mice, 5 mg kg^−1 intravenous (abstract), read-out: plasma clearance (converted)), 1.8 mL/min. Also, the “plasma level at 4 h post administration” value in series [3] (mice, i.v. 5 mg kg^−1) is recorded as “undetectable”. Besides, in series [3] (mice, i.v. administration, plasma), the “time compound levels were above 10 μM” value was “less than 1 h”. Also, the maximum concentration in series [3] (mice, oral 50 mg kg^−1, plasma) was determined as 2.2 µM. In series [3] (mice, p.o. 50 mg kg^−1 (abstract prints 20 mg kg^−1), based on linear i.v. pharmacokinetics), this compound came in with an oral bioavailability of 15%. Further, the values for the IC50 in series [4], in series [5] and in series [6] were > 100 µM, > 100 µM and 13 µM, respectively. Also, in series [7], the solubility entry is “insufficient solubility”.

In series [3] (setting [9]), `C[C@@H]1CN(c2cc(=O)n3ccc4ccccc4c3n2)C[C@H](C)O1` [NU7107, 2-((2S,6R)-2,6-dimethylmorpholin-4-yl)-pyrimido[2,1-a]isoquinolin-4-one] had an AUC last of 12165 nmol·L/h, a Cl obs. of 0.11 L/h and a Vd of 0.12 L. The half-life in series [3] (female, BALB/c, mouse, ip, Table 3: each compound at 20 mg kg^−1 i.p. to mice, plasma) is 47.4 min. The Tmax in series [3] (female, BALB/c, mouse, ip, Table 3: each compound at 20 mg kg^−1 i.p. to mice, plasma, read-out: Tmax) was 15 min. The same compound returned a Cmax in series [3] (setting [10]) of 10.4 µM. For the same compound, in series [3] (mice, 20 mg kg^−1 i.p.), the “decrease in plasma clearance compared with NU7026” value was “four-fold” and the “plasma level 6 h post administration” value is “still detectable”. Also, on DNA-PK, the IC50 is > 10 µM.

`O=c1cc(N(CCO)CCO)oc2c1ccc1ccccc12` [NU7199, 2-[bis-(2-hydroxyethyl)-amino]-benzo[H]chromen-4-one]: the AUC last in series [3] (setting [8]) stood at 414 nmol·L/h. Further, the “level in 24 h urine samples” value in series [1] is given as “significant amounts”.

Take `O=c1cc(NCCOCCO)oc2c1ccc1ccccc12` [NU7200, 2-[2-(2-hydroxyethoxy)-ethylamino]-benzo[H]chromen-4-one]: in series [3] (setting [8]), the AUC last was 143 nmol·L/h. Moreover, in series [1], the “level in 24 h urine samples” value is “significant amounts”.

Source of the values: article PMC2361671, “Preclinical pharmacokinetics and metabolism of a novel prototype DNA-PK inhibitor NU7026” (British Journal of Cancer, 2005).
